Measured values: ChEMBL document CHEMBL1126062, “Benzofuran bioisosteres of hallucinogenic tryptamines” (J Med Chem, 1992)

Legend:
[1] = target: T1, 5-hydroxytryptamine receptor 1A (Rattus norvegicus, UniProt P19327); experiment: Affinity on 5-hydroxytryptamine 1A receptor labeled by [3H]8-OH-DPAT
T1 sequence (P19327 whole entry): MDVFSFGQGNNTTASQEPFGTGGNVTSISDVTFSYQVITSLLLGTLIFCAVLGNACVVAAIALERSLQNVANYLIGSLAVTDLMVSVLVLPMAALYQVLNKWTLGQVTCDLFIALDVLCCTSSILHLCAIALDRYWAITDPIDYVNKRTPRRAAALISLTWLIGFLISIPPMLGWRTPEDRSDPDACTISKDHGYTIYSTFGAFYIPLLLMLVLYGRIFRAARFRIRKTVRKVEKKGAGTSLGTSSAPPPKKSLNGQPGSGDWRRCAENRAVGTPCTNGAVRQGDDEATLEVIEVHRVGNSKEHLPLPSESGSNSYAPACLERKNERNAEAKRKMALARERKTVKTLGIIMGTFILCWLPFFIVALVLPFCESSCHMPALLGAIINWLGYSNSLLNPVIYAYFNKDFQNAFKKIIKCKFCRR

[2] = target: Serotonin 2 (5-HT2) receptor (Rattus norvegicus, UniProt P30994+P08909+P14842); experiment: Affinity on 5-hydroxytryptamine 2 receptor labeled by [125I]DOI; type: protein assay

SMILES | Ki [1] [nM] | Ki [2] [nM]
COc1ccc2occ(CC(C)N)c2c1 (stereo in doubt; 4) | 779 | 27.1
COc1ccc2occ(CC(C)N)c2c1 (racemic) | 445 | 42
COc1ccc2[nH]cc(CCN(C)C)c2c1 [MEBUFOTENIN] | 69 | 
COc1ccc2occ(CCN(C)C)c2c1 | 101 | 95
